# From patent US12239729B2, “TRPV3 agonists for the treatment of skin conditions” (Soricimed Biopharma Inc., priority 2012, dated 2025)
# “Also recorded” adds a separate entry of the source. Peptide text beside a SMILES is read from it.
# What was measured:
# HaCaT cells [1] = test: Cell death assay in HaCaT cells with SOR-C13 fragments (Example 5); format: cell-based, human
# Procedure: Solutions of each of the peptides listed in Table 2 were made based on formulation weight without correction of purity in PBS at a 100 mM stock concentration. Stock solutions were sterilized by passing through a 0.2 μm syringe filter prewashed with PBS. Stocks of peptides were kept in aliquots at −20° C. during the study. Glycolic acid was made in a 5M stock in PBS and filtered using a 0.2 μm syringe filter and kept at −20° C.
# Human immortalized keratinocyte HaCaT cells were cultured as described in Example 3.
# HaCaT cells were plated at ˜8×10^5/well in each well of the 12-well tissue culture plates in triplicates in 2 ml culture media. Twenty-four (24) hours post-plating, cells were treated with PBS, or peptide stocks at 100 and 1000 μM (in triplicates), or glycolic acid at 20 mM (single data point). The Cell Death Assay was otherwise performed as described in Example 3.
# HaCaT cells [2] = test: Cell death assay in HaCaT keratinocytes (Example 3); format: cell-based, human
# Procedure: In an initial experiment, various concentrations of SOR-C13 and SOR-C27 were tested on human keratinocytes (HaCaT cells) for their ability to cause cell death. The negative control was Phosphate Buffered Saline (PBS) and the positive control was Glycolic Acid (20 mM), a known activator of TRPV3. At the concentrations used (10, 100 and 1000 μM) only the 1000 μM concentration produced a statistically significant increase in cell death over PBS (FIG. 6). […] The two peptides appeared to be indistinguishable in their activity with respect to the number of dead cells
# Both peptides were dissolved in PBS at 30 mM concentration at ambient temperature based on the peptide content with a correction factor (SOR-C13 concentration was multiplied by 1.19, while SOR-C27 concentration was multiplied by 1.29). Stock solutions were sterilized by passing through a 0.2 μm syringe filter prewashed with PBS. Stocks of peptides were kept at −20° C. during the study.
# Human immortalized keratinocyte HaCaT cells (Cat. #T0020001) were from Addexbio Technologies (San Diego, California, USA). In general, HaCaT cells were cultured in 37° C. CO2 incubator in DEME with 1.0 g/L glucose (Lonza, Cat #12-707F) with 10% FBS. Glutamine (2 mM), penicillin (100 I.U.) and streptomycin (100 μg/ml) were added to the media. Cells were sub-cultured twice per week using Trypsin-0.25% EDTA to detach cells.
# HaCaT cells were plated at ˜8×10^5/well in each well of the 12-well tissue culture plates in triplicates in 2 ml culture media. Twenty-four (24) hours post-plating, cells were treated with PBS, or SOR-C13 at 10, 100 and 1000 μM, or SOR-C27 at 10, 100 and 1000 μM, or glycolic acid at 20 mM.
# At 72 hours post-treatment, the incubation was terminated and supernatant was collected. Attached cells were washed with 2 ml PBS, and trypsinized. Suspension of cells was combined with supernatant and spun at 1000 g for 5 minutes. The cell pellet was then resuspended in 100 μl PBS for cell counting using trypan blue exclusion.
# Student's t-test was used to compare the group treated with a test article vs. the group treated with PBS. Standard errors of mean (SEM) were used to represent variation of data.
# [3] = biological target: T1, TRPV3 channels expressed in HEK-293 cells (Homo sapiens, UniProt Q8NET8); test: Patch-clamp testing of TRPV3 channel activity in transfected HEK-293 cells; format: cell-based
# T1 construct: expressed in transfected cells; host or cells: HEK-293 cells, transient transfection
# T1 sequence (Q8NET8 1-790): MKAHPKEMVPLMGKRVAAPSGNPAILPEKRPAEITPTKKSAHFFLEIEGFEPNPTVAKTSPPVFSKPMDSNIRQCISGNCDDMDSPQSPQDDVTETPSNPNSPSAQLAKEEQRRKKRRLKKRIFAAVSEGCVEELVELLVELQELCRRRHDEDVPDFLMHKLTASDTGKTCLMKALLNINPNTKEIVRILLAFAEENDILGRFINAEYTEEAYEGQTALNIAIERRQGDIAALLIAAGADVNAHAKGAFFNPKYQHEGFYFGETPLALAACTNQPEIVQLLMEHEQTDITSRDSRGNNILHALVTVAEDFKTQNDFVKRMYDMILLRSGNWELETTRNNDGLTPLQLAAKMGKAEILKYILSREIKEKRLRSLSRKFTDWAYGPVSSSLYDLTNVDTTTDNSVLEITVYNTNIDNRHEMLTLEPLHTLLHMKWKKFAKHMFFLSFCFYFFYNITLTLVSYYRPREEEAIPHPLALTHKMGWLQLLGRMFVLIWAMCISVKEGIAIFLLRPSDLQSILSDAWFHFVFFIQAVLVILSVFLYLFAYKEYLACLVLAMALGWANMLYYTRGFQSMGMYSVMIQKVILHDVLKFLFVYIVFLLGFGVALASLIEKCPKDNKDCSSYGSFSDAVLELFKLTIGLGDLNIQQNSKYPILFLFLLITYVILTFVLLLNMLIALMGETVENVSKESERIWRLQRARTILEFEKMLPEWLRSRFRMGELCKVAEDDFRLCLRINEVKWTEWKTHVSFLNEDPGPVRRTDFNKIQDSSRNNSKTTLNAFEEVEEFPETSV
# Procedure: SOR-C13, SOR-C27 and SOR-N54 were tested using a patch clamp screen to determine whether the peptide had any effect on the channel activity of TRPV3. Ruthenium red, a known antagonist of TRPV3 and 2-Aminoethoxydiphenyl Borate (2-APB) a known activator of TRPV3 were used as controls.
# HEK 293 cells were maintained in ϕ30 mm cell culture plate in DMEM media supplemented with 10% fetal bovine serum and penicillin/streptomycin. Cells were grown in a humidified atmosphere of 95% air/5% CO2 at 37° C. in a cell culture incubator.
# The cells from 70-90% confluence were prepared for transfection. For transient expression in HEK-293 cells 1 μg plasmid cDNA and pEGFP (in vivo reporter of gene expression) were used.
# Recordings were performed at 20˜23° C. Currents were sampled using Digidata 1440A, amplified, and filtered at 2 kHz using Axopatch 200B, then acquired and analyzed using pClamp 10.0 (Molecular Devices, Sunny vales, CA, USA).
# The pipette solution and bath solution contained 140 mM CsCl, 4 mM MgCl2, 10 mM EGTA, CsOH pH=7.3 and 130 mM NaCl, 5 mM KCl, 2 mM CaCl2), 1 mM MgCl2, 25 mM HEPES, 30 mM Glucose, pH=7.3, respectively.
# Each peptide was diluted in the bath solution to the desired concentration (0.01 μM, 0.03 μM, 0.1 μM, 0.3 μM, 1 μM, 3 μM, or 10 μM), respectively.
# HaCaT cells [4] = test: Wound healing (scratch gap closure) assay in HaCaT cells (Example 4); format: cell-based, human; conditions: 24 hours; for effect on migration of HaCaT cells through the scratch (words): 100 μM
# Procedure: SOR-C13 and SOR-C27 were tested for their ability to promote tissue repair in a human keratinocytes (HaCaT) model of wound healing. In this model, cells are grown to confluency and then a gap is made in the sheet of cells by scratching the surface of the cells. After treating the cells for 24 hours, the closure of the gap, and the state of the cells in terms of polarization and mobility into the gap, are measured as a surrogate for activation of the wound healing response and the proliferation and/or migration of cells involved in tissue repair.
# HaCaT cells were plated at 4×10^5 per well in 12-well tissue culture plates in MEGM Bullet Kit (Lonza, Cat. #CC-3150) containing bovine pituitary extracts (BPE), hEGF, insulin, and hydrocortisone. The total volume was 2 ml. About 24 hours later, a gap at the bottom of each well was generated by scratching with a sterile pipette tip. The supernatant was aspirated and cells were washed gently once with PBS. Fresh media (MEGM Bullet Kit, 2 ml) was added after the wash. Cells were treated in duplicates with PBS, or SOR-C13 at 10, 100 and 1000 μM, or SOR-C27 at 10, 100 and 1000 μM, and 100 μM valproic acid. After 24 hours, each well was examined under the microscope to semi-quantify the gap closure by cell migration. A digital camera fixed to the microscope was used to capture images of cells.
# Under visual inspection, the wound healing results was scored as: • “−”: minimal cell polarization toward wound, no initiation of cell protrusion into the gap; no change in the wound gap; • “+”: cell polarization toward wound was observed; cell protrusion was observed; cell migration started but gap size is between 75 to 100% of original wound gap; • “++”: cell polarization toward the wound was observed; cell protrusion was observed; cell migration across the gap was observed, and gap size ≤½ of original wound gap; • “+++”: cell polarization toward wound was observed; cell protrusion was observed; cell migration across the gap was observed, and gap size ≤⅓ of original wound gap. Results
compound,measurement,setting,value
"O=C(O)CO [Glycolic acid, reference compound]",number of dead cells,"HaCaT cells [1]; 20 mM, 72-hour treatment, single data point",~4.5×10^4 per well
same,induction of cell death above PBS,"HaCaT cells [1]; 20 mM, 72 hours",no increase in cell death above the PBS treatment
same,induction of cell death (words),"HaCaT cells [2]; 20 mM, 72 hours",dramatically induced cell death
same,number of dead cells,"HaCaT cells [2]; 20 mM, 72 hours",~9.1×10^4 per well
N.N.N.N.N.N.N.N.N.N.N.N.N.N.[Cl-].[Cl-].[Cl-].[Cl-].[Cl-].[Cl-].[O-2].[O-2].[Ru+3].[Ru+3].[Ru+4] [Ruthenium red],effect on activation of TRPV3 channel by 2-APB,"[3]; control inhibitor, 100 μM 2-APB",inhibited activation of the channel by 2-APB
CC(C)C[C@H](NC(=O)CNC(=O)CNC(=O)[C@H](CCC(=O)O)NC(=O)[C@@H](NC(=O)[C@H](CC(=O)O)NC(=O)[C@H](CC(N)=O)NC(=O)[C@H](CO)NC(=O)[C@H](CO)NC(=O)[C@H](CC(C)C)NC(=O)[C@H](CCCCN)NC(=O)CNC(=O)[C@@H](N)CCC(=O)O)[C@@H](C)O)C(=O)N[C@@H](CS)C(=O)N[C@@H](CCCCN)C(=O)N[C@@H](CCC(=O)O)C(=O)N[C@@H](Cc1ccccc1)C(=O)N[C@@H](CC(C)C)C(=O)N[C@@H](Cc1c[nH]cn1)C(=O)N1CCC[C@H]1C(=O)N[C@@H](CO)C(=O)N[C@@H](CCCCN)C(=O)N[C@H](C(=O)N[C@@H](CC(=O)O)C(=O)N[C@@H](CC(C)C)C(=O)N1CCC[C@H]1C(=O)N[C@@H](CCCNC(=N)N)C(=O)O)C(C)C [SOR-C27] (H-EGKLSSNDTEGGLCKEFLHPSKVDLPR-OH),EC50,[3],94.1 nM
same,effect on migration of HaCaT cells over the tested concentrations,"HaCaT cells [4]; 10, 100, 1000 μM",did not appear to exert a significant effect; also recorded: no significant visual difference; also recorded: had no clear effect on promoting migration
same,increase in cell death compared to PBS treatment,"HaCaT cells [2]; 1 mM, 72-hour incubation",~2 fold
same,induction of cell death compared to PBS,"HaCaT cells [2]; 1 mM, 72 hours, p<0.05",significantly induced cell death
same,number of dead cells,"HaCaT cells [2]; 1 mM, 72 hours, trypan blue exclusion",2.3×10^4 /well
same,induction of cell death compared to PBS,"HaCaT cells [2]; 10 or 100 μM, 72 hours",no significant difference in the numbers of dead cells; also recorded: did not have a significant effect
"CCCC(CCC)C(=O)O [Valproic acid, reference compound]",effect on migration of HaCaT cells through the scratch (words),HaCaT cells [4],appeared to block the migration
same,effect on migration of HaCaT cells through the scratch (words),HaCaT cells [4]; listed as valproic acid,did not appear to induce migration
HPSKVDLPR [SOR-C9],induction of cell death (words),"HaCaT cells [1]; 100 μM, 72 hours, p<0.05",slight but significant increase of cell death
same,induction of cell death (words),"HaCaT cells [1]; 100 μM, 72 hours, p<0.05, listed as C9",significant cell death induction
SKVDLPR [SOR-C7],induction of cell death (words),"HaCaT cells [1]; 100 μM, 72 hours, p<0.05",slight but significant increase of cell death
same,induction of cell death (words),"HaCaT cells [1]; 100 μM, 72 hours, p<0.05, listed as C7",significant cell death induction
same,induction of cell death (words),"HaCaT cells [1]; 1000 μM, 72 hours, p<0.05",slight but significant increase of cell death
"SOR-N54: full length soricidin peptide, fifty-four amino acid paralytic peptide (DCSQDCAACSILARPAELNTETCILECEGKLSSNDTEGGLCKEFLHPSKVDLPR; Soricidin; UniProt P0C2P6 1-54, looked up)",effect on TRPV3 channel activity / activation of TRPV3 by 2-APB,[3]; 10 μM peptide in the presence of 100 μM 2-APB,did not show any effect; also recorded: did not alter the activation of TRPV3
